System: ALK1 mutant zebrafish
Assay: Treatment of ALK1 mutant zebrafish, microscopic images of the lateral dorsal aorta
Assay type: in vivo
Conditions: 0.3 μM ATRA, 24-51 hours after insemination; control 0.1% DMSO; FIG. 5
Experimental: The zebrafish ALK1 mutant is in a gene that is defective in some patients that suffer from HHT (hereditary hemorrhagic telangiectasia). The ALK1 mutant phenotype is an enlarged lateral dorsal aorta (LDA).
The treatment with the different active ingredients took place, between 24-51 hours after insemination of zebrafish eggs. The treatment was performed with 0.1% DMSO (first row) and 0.3 μM ATRA (second row).

In the case of CC1=C(/C=C/C(C)=C/C=C/C(C)=C/C(=O)O)C(C)(C)CCC1 [ATRA, all-trans retinoic acid], the “overgrowth of the aorta (enlarged lateral dorsal aorta) in the ALK1 mutant” value is reported as “suppressed”.

— patent publication US20190151274A1, “COMPOUND FOR USE IN THE TREATMENT OF A BLOOD VESSEL DISEASE” (Universitaet Potsdam, priority 2017, published 2019)
